These results are taken from ChEMBL document CHEMBL4229333, “Effects of rigidity on the selectivity of protein kinase inhibitors” (Eur J Med Chem, 2018).

Activity calls are given as the source filed them. The rule behind the calls is not given here.

As usually defined, the IC50 is the point on the concentration scale where inhibition reaches its midpoint.

Assay [1] has as its target Serine/threonine-protein kinase B-raf (Homo sapiens, UniProt P15056, V600E). The assay is described as follows: Inhibition of BRAF V600E mutant (unknown origin) after 20 mins by immunoblotting assay.
The target of assay [2] is T1, Tyrosine-protein kinase ABL1 (Homo sapiens, UniProt P00519). The assay is described as follows: Inhibition of ABL (unknown origin) by phosphocellulose paper disk assay.
T1 sequence (P00519 whole entry): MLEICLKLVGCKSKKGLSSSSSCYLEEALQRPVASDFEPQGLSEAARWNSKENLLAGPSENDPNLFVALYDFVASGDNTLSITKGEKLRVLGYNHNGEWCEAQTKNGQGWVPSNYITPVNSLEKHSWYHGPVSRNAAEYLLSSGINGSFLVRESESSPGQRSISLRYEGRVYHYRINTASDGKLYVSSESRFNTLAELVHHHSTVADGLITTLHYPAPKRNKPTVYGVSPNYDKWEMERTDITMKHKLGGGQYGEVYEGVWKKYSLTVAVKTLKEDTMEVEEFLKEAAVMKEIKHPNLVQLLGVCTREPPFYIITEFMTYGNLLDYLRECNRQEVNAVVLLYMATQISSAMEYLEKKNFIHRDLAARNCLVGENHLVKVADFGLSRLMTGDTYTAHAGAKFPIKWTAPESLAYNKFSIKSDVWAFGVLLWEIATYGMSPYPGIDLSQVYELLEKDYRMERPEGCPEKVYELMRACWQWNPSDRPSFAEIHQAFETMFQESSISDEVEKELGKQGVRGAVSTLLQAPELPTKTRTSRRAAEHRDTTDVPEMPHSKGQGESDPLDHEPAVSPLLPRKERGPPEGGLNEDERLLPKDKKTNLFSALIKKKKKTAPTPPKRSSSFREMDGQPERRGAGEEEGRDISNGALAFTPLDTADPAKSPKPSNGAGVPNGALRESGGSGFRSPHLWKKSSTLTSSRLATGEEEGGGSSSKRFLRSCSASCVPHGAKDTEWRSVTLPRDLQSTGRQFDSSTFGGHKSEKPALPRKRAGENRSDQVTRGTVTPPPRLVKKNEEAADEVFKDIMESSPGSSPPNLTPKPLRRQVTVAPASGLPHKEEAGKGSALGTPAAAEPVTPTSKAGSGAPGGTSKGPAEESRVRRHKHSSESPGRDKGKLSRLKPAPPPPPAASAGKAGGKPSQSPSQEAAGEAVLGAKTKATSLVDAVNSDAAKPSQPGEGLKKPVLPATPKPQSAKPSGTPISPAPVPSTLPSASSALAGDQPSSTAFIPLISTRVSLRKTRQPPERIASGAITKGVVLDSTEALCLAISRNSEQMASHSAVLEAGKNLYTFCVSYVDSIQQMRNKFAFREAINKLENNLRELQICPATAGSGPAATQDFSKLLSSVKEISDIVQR
Assay [3] has as its target T1, Tyrosine-protein kinase ABL1. The assay is described as follows: Inhibition of ABL (unknown origin) at 30 nM by phosphocellulose paper disk assay.
The test system of assay [4] is Serine/threonine-protein kinase B-raf (Homo sapiens), P15056 [V600E]. The assay is described as follows: Inhibition of BRAF V600E mutant in human A375 cells assessed as decrease in MEK phosphorylation up to 100 uM after 1 hr by immunoblotting assay. The class given is cell-based.
Chain of Serine/threonine-protein kinase B-raf (Homo sapiens), P15056 [V600E] (P15056 whole entry V600E, the tested form may be a part): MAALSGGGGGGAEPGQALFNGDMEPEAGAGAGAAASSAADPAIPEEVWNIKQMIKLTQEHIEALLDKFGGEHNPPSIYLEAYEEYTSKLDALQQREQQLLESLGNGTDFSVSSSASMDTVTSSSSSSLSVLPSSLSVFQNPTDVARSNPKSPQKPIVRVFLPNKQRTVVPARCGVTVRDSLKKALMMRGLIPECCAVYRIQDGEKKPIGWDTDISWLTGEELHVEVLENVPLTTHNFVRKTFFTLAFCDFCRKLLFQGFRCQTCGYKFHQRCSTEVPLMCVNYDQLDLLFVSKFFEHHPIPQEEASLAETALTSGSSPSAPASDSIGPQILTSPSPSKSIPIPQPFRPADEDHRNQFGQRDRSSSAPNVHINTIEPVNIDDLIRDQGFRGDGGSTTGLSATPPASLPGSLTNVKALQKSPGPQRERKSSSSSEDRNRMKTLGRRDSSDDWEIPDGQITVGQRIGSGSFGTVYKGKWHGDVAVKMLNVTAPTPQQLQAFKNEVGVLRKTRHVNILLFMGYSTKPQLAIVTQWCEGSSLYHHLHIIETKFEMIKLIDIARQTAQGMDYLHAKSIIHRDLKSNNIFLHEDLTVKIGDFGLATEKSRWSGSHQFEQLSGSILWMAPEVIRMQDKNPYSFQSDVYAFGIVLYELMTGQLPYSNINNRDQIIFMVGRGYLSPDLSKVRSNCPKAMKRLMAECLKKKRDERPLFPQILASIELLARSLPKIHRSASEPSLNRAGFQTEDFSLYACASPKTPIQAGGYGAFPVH
For the next assay, the target named is Bcr/Abl fusion protein (Homo sapiens, UniProt P00519). The assay is described as follows: Inhibition of BCR-ABL (unknown origin) expressed in mouse BA/F3 cells assessed as reduction in ABL phosphorylation at Y412 residue incubated for 3 hrs by immunoblotting assay. Type of assay: cell-based.
Chain of Bcr/Abl fusion protein (P00519 whole entry, the tested form may be a part): as the sequence (P00519 whole entry) above
Chain of Bcr/Abl fusion protein (P11274 whole entry, further chain, the tested form may be a part): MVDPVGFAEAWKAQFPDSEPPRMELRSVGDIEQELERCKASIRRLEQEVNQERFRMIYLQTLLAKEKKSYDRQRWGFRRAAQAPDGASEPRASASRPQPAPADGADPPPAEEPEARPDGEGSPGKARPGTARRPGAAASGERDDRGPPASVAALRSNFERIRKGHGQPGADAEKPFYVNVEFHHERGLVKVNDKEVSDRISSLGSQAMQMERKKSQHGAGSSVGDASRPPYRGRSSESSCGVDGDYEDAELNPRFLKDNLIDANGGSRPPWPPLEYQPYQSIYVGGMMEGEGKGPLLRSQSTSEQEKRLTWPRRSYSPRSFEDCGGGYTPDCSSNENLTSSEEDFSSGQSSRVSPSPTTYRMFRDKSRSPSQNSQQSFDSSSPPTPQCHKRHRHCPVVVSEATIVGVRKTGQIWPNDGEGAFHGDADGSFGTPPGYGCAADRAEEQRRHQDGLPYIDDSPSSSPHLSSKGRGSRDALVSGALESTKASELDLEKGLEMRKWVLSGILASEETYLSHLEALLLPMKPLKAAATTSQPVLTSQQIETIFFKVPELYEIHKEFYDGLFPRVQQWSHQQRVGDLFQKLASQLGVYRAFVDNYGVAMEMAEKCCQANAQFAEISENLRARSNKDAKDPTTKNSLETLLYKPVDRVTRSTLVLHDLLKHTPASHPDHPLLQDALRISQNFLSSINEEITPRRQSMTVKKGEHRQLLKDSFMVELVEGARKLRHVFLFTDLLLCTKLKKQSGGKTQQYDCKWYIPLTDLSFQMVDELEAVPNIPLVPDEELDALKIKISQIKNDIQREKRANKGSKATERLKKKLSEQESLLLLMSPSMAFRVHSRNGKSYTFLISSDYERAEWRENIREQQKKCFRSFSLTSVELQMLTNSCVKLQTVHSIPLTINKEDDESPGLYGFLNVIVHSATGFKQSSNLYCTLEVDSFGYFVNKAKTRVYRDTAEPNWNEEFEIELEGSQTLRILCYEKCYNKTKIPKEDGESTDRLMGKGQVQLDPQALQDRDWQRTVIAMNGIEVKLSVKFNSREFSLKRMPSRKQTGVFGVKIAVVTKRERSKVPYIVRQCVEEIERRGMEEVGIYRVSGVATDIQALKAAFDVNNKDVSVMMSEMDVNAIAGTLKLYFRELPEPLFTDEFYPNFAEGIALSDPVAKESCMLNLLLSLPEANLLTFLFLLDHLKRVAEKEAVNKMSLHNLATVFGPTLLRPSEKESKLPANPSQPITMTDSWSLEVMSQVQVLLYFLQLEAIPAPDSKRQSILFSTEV

Chain of Serine/threonine-protein kinase B-raf (P15056 2-766 V600E limits assumed): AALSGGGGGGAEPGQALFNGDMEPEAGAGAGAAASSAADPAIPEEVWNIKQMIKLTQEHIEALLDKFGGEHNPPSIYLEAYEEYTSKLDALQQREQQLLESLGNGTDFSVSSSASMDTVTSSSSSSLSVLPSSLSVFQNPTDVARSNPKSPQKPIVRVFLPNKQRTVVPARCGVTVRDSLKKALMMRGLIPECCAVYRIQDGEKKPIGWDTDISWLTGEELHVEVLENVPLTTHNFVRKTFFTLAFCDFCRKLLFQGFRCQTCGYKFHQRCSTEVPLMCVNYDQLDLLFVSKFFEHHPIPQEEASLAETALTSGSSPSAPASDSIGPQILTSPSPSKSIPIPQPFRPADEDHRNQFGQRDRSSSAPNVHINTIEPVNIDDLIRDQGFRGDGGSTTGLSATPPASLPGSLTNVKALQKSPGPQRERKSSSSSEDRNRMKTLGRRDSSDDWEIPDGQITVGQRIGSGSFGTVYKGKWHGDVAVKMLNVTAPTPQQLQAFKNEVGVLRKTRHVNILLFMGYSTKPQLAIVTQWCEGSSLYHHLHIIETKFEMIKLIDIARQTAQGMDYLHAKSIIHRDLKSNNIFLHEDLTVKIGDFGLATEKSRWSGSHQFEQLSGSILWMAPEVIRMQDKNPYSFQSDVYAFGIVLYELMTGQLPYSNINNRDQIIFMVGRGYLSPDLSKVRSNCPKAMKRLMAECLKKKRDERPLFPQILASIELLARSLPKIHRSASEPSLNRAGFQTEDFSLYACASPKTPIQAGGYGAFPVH

In assay [1], `CC(C)n1nc(C#Cc2cccc3cc(-c4ccc(Cl)cc4)ncc23)c2c(N)ncnc21` gave an IC50 of 46 nM.

As to `CC(C)n1nc(C#Cc2cccc3cc(-c4ccc(Cl)c(C(F)(F)F)c4)ncc23)c2c(N)ncnc21`, the values for the IC50 in assay [2] and in assay [1] were 22 nM and 87 nM, respectively. The inhibition result in assay [3] is “inactive”.

As for `CCn1nc(C#Cc2cccc3cc(-c4cccc(C(F)(F)F)c4)ncc23)c2c(N)ncnc21`, the IC50 in assay [2] was determined as 3.5 nM; in assay [1] it was 13 nM. Also, the inhibition entry in assay [4] and in assay [3] was “inactive” in each case.

Regarding `CC(C)n1nc(C#Cc2cccc3cc(-c4ccc(CN5CCN(C)CC5)cc4)ncc23)c2c(N)ncnc21`, the IC50 is 7 nM in assay [2], 51 nM in assay [1] and 211 nM at Bcr/Abl fusion protein. In addition, the inhibition entry in assay [3] was “inactive”.

Molecule `Cc1ccc(-c2cc3cccc(C#Cc4nn(C(C)C)c5ncnc(N)c45)c3cn2)cc1` showed an IC50 in assay [1] of 24 nM.

`Cc1ccc2cc(-c3cccc(C(F)(F)F)c3)ncc2c1C#Cc1nn(C(C)C)c2ncnc(N)c12`: the values for the IC50 in assay [2] and in assay [1] were 10 nM and 44 nM, respectively. Also, in assay [3], the inhibition entry was “inactive”.
